According to ChEMBL document CHEMBL1145120, “Molecular modeling of the three-dimensional structure of dopamine 3 (D3) subtype receptor: discovery of novel and potent D3 ligands through a hybrid pharmacophore- and structure-based database searching approach” (J Med Chem, 2003):

What follows are compounds tested against T1, D(3) dopamine receptor (Homo sapiens, UniProt P35462) (assay: Compound was measured for its ability to compete with [3H]spiperone binding to the human Dopamine receptor D3 transfected in CHO cells).
T1 sequence (P35462 whole entry): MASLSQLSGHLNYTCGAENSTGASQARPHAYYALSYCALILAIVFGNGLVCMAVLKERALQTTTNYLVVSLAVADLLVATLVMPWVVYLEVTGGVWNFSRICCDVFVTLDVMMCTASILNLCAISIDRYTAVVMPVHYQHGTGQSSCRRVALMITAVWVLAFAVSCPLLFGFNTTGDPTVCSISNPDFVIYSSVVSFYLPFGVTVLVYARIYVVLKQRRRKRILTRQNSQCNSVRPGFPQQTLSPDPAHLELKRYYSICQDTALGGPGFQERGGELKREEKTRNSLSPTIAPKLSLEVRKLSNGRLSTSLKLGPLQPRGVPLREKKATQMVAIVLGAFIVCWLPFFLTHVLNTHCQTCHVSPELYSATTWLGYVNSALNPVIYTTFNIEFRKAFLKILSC
Assay type: cell-based

Row | SMILES | Ki [nM]
1 | CCCN1CCOC2c3cc(O)ccc3OC[C@H]21 (some centres undefined) | 1.1
2 | CCN1CCC[C@H]1CNC(=O)c1c(O)c(Cl)cc(Cl)c1OC [RACLOPRIDE] | 3.7

These compounds were tested against T1, D(3) dopamine receptor (assay: not given).

Row | SMILES | Ki [nM]
3 | CCCCN1CCCC1CNC(=O)c1cc(C#N)c2ccccc2c1OC (centres undefined) [NAFADOTRIDE] | 0.81

Biological target: T1, D(3) dopamine receptor
Experiment: not given
Remark: another data set of the same source

Row | SMILES | Ki [nM]
4 | CCCCN(CCCC)Cc1c(C)nc2cc(OC)ccc2c1O | 10000
5 | CCC(=O)OC1(c2ccccc2)CCN(CCCC(=O)c2ccccc2)CC1 | 429
6 | O=C(CCCCN1CCN2c3ccccc3CCC2C1)c1ccccc1 (centres undefined) | 297
7 | O=c1[nH]c2ccccc2n1CCCN1CCN(C(c2ccccc2)c2ccccc2)CC1 [OXATOMIDE] | 62.7
8 | CCCCN1CN(CCCC)CN(C(=S)c2c(Cl)cccc2Cl)C1 | 10000
9 | O=C(OC1(c2nccc3ccccc23)CCN(CCc2ccccc2)CC1)c1ccccc1 | 1000
10 | CCC(=O)OC1(c2ccccc2)CCN(CCC(=O)c2ccccc2)CC1C (centres undefined) | 10000
11 | CN(C)C(=O)C1(c2ccc(Cl)cc2)CCN(CCCC(=O)c2ccc(F)cc2)CC1 [AMIPERONE] | 43.2
12 | OC(CCCN1CCN2CCc3[nH]c4ccccc4c3C2C1)c1ccc(F)cc1 (centres undefined) | 2410
13 | CCCCCCCN1CCC(C(=O)CC)(c2cccc(O)c2)CC1 | 2610
14 | c1ccc2c3c([nH]c2c1)CCN1CCN(CCc2ccncc2)CC31 (centres undefined) | 10000
15 | CC(=O)NCC1(c2ccccc2)CCN(CCCC(=O)c2ccc(F)cc2)CC1 [ACEPERONE] | 10000
16 | N#CCCN(CCCN1CCOCC1)CN1C(=O)c2ccccc2C1=O | 10000
17 | CCCCN(CC)CC(C(C)=O)C1=C(O)OC2C=CC=CC2C1=O (centres undefined) | 10000
18 | O=C(CCN1CCN2c3ccccc3CCC2C1)c1ccc(F)cc1 (centres undefined) | 465
19 | Cc1ccc(C)c2c1Sc1c(ccc3ccccc13)N2CCCN(C)C | 442
20 | CCCN(CCC)CN1C(=O)c2ccccc2C1=O | 10000
21 | O=C(CCCN1CCN2c3ccccc3CCC2C1)c1ccc(F)cc1 (centres undefined) | 83.5
22 | CCCCN1C/C(=C\c2ccc(Br)cc2)C(=O)/C(=C/c2ccc(Br)cc2)C1 | 1000
23 | CCOc1ccc(NC(=O)C2CCCN(CCc3ccccc3)C2)cc1 (centres undefined) | 10000
24 | CCN(CC)CCCN(C)Cc1c(-c2ccccc2)oc(-c2ccccc2)c1Cl | 1380
25 | O=C(CCCN1CCN2Cc3[nH]c4ccccc4c3CC2C1)c1ccc(F)cc1 (centres undefined) [BIRIPERONE] | 11
26 | Cc1ccc2c(c1)Sc1c(ccc3ccccc13)N2CCCN(C)C | 1420
27 | CCn1c2ccccc2c2cc(NCCCN(C)C)ccc21 | 10000
28 | CCCCN1CSC(=S)N(Cc2ccccc2)C1 | 10000
29 | CCCCCN1CCN(C(CC(=O)c2ccccc2)C(=O)c2ccccc2)CC1 (centres undefined) | 10000
30 | CCCN(CCC)CCC(O)c1cc2c(c3ccccc13)CCCC2 (centres undefined) | 1260

Each compound was assayed against T1, D(3) dopamine receptor (assay: biochemical).

Row | SMILES | Ki [nM]
31 | CCCN[C@@H]1CCc2c(OC)cccc2[C@@H]1C | 70
32 | CCN(CC)CCNC(=O)c1cc(Cl)c(N)cc1OC [METOCLOPRAMIDE] | 27
33 | OC1(c2ccc(Cl)cc2)CCN(Cc2c[nH]c3ccccc23)CC1 | 60
34 | CCCN(CCC)C1CCc2cc3c(cc2C1)OCC3 (centres undefined) | 13
